# Values of other authors in publication PMC8537947, “Improved Radiolytic Stability of a ^68Ga-labelled Collagelin Analogue for the Imaging of Fibrosis” (Pharmaceuticals, 2021).
# Assays:
# collagen I = conditions: initial cyclic peptide analogues, earlier work of the authors; cited from earlier work
# Source text: One of the targets for radioactive imaging agents is type I collagen which is the most abundant extracellular matrix protein [1, 2, 3, 4, 5, 6]. Collagelin, a cyclic peptide identified from the bacterial peptide library, presumably binds selectively to the triple helix structure of collagen. The aim of this study was to develop a PET tracer for the specific imaging of early active fibrosis via binding to monomer collagen. The uptake in bone, skin and other tissues rich in collagen cross-linked fibrils, and in diseased sites with established, mature collagen was expected to be low, ...
# [1] = test system: frozen sections of dog heart affected by fibrosis; conditions: cited from earlier work
# Source text: The presence of excessive deposition of collagen was confirmed previously performing a Sirius Red histological assay on the adjacent tissue sections. The uptake of [^68Ga]Ga-NO2A-[Nle^13]-Col in the fibrotic tissue linearly correlated (R^2 = 0.84, Figure 2C) with the scoring of fibrosis, indicating a target density ranging between ...
substance,measurement,setting,value
c[CPGRVXHGLHLGDDEGPC] (disulfide) [[^68Ga]Ga-NO2A-Col],Kd,collagen I,2300 ± 800 nM
same,target density,[1],2.0 fmol/mm^3
